# Experimental data from ChEMBL document CHEMBL3045965, “Design, synthesis, and evaluation of fluorescent cell-penetrating peptidic antagonists of Grb2-SH2 for targeting MCF-7 breast cancer cells” (Med Chem Res, 2013).
# Square brackets hold non-standard residues; d marks the D form. Peptide text beside a SMILES is read from it. * marks the point of attachment. Fmoc = O=C(OCC1c2ccccc2-c2ccccc21)*; Aib = CC(C)(N)C(=O)O
# Key:
# [1] = tested on: MCF7; assay: Cytotoxicity against Homo sapiens (human) MCF7 cells assessed as cell viability at 50 uM after 48 hr by MTT assay relative to control; format: functional; details: MCF7, 48 h, read-out: Activity
# [2] = tested on: MCF7; assay: Cytotoxicity against Homo sapiens (human) MCF7 cells assessed as cell viability at 75 uM after 48 hr by MTT assay relative to control; format: functional; details: MCF7, 48 h, read-out: Activity
# [3] = tested on: MCF7; assay: Cytotoxicity against Homo sapiens (human) MCF7 cells assessed as cell viability at 100 uM after 48 hr by MTT assay relative to control; format: functional; details: MCF7, 48 h, read-out: Activity
# [4] = tested on: MCF7; assay: Cytotoxicity against Homo sapiens (human) MCF7 cells assessed as cell viability at 25 uM after 48 hr by MTT assay relative to control; format: functional; details: MCF7, 48 h, read-out: Activity
# [5] = tested on: MCF7; assay: Cytotoxicity against Homo sapiens (human) MCF7 cells assessed as cell viability after 48 hr by MTT assay; format: functional, cell-based; details: MCF7, 48 h
# [6] = tested on: MCF7; assay: Cytotoxicity against Homo sapiens (human) MCF7 cells assessed as cell viability after 24 hr by MTT assay; format: functional, cell-based; details: MCF7, 24 h
# [7] = molecular target: Growth factor receptor-bound protein 2 (Homo sapiens, UniProt P62993); assay: Binding affinity to Grb2-SH2 (unknown origin) by surface plasmon resonance analysis
# Chain of Growth factor receptor-bound protein 2 (P62993 whole entry): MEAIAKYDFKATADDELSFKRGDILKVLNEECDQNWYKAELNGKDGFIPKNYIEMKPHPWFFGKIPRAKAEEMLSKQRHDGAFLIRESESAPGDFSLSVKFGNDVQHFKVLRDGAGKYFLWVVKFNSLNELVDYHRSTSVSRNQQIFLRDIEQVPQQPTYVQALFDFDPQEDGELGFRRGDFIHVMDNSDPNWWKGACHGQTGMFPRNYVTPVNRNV
structure (smiles),measurement,setting,value
CC(C)(NC(=O)[C@H](Cc1ccc(O)cc1)NC(=O)[C@@H](N)CCC(=O)O)C(=O)N[C@@H](CC(N)=O)C(=O)NCC(=O)N[C@@H](CCCNC(=N)N)C(=O)N[C@@H](CCCCN)C(=O)N[C@@H](CCCCN)C(=O)N[C@@H](CCCNC(=N)N)C(=O)N[C@@H](CCCNC(=N)N)C(=O)O (H-EY[Aib]NGRKKRR-OH),viability at 50 µM,[1],99.4%
same,viability at 75 µM,[2],91.5%
same,viability at 100 µM,[3],93.1%
same,viability at 25 µM,[4],90.7%
same,IC50,[5],> 100 µM
CC[C@H](C)[C@H](NC(=O)[C@H](C)NC(=O)[C@@H](NC(=O)[C@H](Cc1ccc(O)cc1)NC(=O)[C@H](CC(N)=O)NC(=O)C(C)(C)NC(=O)[C@H](Cc1ccc(O)cc1)NC(=O)[C@@H](N)CCC(=O)O)[C@@H](C)O)C(=O)N[C@@H](C)C(=O)N[C@@H](Cc1c[nH]c2ccccc12)C(=O)N[C@H](C(=O)N[C@@H](CCCCN)C(=O)N[C@@H](C)C(=O)N[C@@H](Cc1ccccc1)C(=O)N[C@H](C(=O)N[C@@H](CCCNC(=N)N)C(=O)N[C@@H](CCCCN)C(=O)N[C@@H](CC(C)C)C(=O)N[C@@H](CCCNC(=N)N)C(=O)N[C@@H](CCCCN)C(=O)O)[C@@H](C)CC)C(C)C (H-EY[Aib]NYTAIAWVKAFIRKLRK-OH),viability at 50 µM,[1],80.4%
same,viability at 75 µM,[2],40.5%
same,viability at 100 µM,[3],19.3%
same,viability at 25 µM,[4],95.4%
same,IC50,[6],87 µM
same,IC50,[5],67.1 µM
CC[C@H](C)[C@H](NC(=O)[C@H](C)NC(=O)[C@@H](NC(=O)[C@H](Cc1ccc(O)cc1)NC(=O)[C@H](CC(N)=O)NC(=O)C(C)(C)NC(=O)[C@H](Cc1ccc(O)cc1)NC(=O)[C@H](CCC(=O)O)NC(=O)OCC1c2ccccc2-c2ccccc21)[C@@H](C)O)C(=O)N[C@@H](C)C(=O)N[C@@H](Cc1c[nH]c2ccccc12)C(=O)N[C@H](C(=O)N[C@@H](CCCCN)C(=O)N[C@@H](C)C(=O)N[C@@H](Cc1ccccc1)C(=O)N[C@H](C(=O)N[C@@H](CCCNC(=N)N)C(=O)N[C@@H](CCCCN)C(=O)N[C@@H](CC(C)C)C(=O)N[C@@H](CCCNC(=N)N)C(=O)N[C@@H](CCCCN)C(=O)O)[C@@H](C)CC)C(C)C (Fmoc-EY[Aib]NYTAIAWVKAFIRKLRK-OH),viability at 50 µM,[1],86.5%
same,viability at 75 µM,[2],77.3%
same,viability at 100 µM,[3],79.8%
same,viability at 25 µM,[4],94.1%
same,IC50,[5],> 100 µM
CC[C@H](C)[C@H](NC(=O)[C@H](C)NC(=O)[C@@H](NC(=O)[C@@H](N)Cc1ccc(O)cc1)[C@@H](C)O)C(=O)N[C@@H](C)C(=O)N[C@@H](Cc1c[nH]c2ccccc12)C(=O)N[C@H](C(=O)N[C@@H](CCCCN)C(=O)N[C@@H](C)C(=O)N[C@@H](Cc1ccccc1)C(=O)N[C@H](C(=O)N[C@@H](CCCNC(=N)N)C(=O)N[C@@H](CCCCN)C(=O)N[C@@H](CC(C)C)C(=O)N[C@@H](CCCNC(=N)N)C(=O)N[C@@H](CCCCN)C(=O)O)[C@@H](C)CC)C(C)C (H-YTAIAWVKAFIRKLRK-OH),viability at 50 µM,[1],97.7%
same,viability at 75 µM,[2],96.4%
same,viability at 100 µM,[3],94.9%
same,viability at 25 µM,[4],101%
same,IC50,[5],> 100 µM
CC(C)(NC(=O)[C@H](Cc1ccc(O)cc1)NC(=O)[C@H](CCC(=O)O)NC(=O)OCC1c2ccccc2-c2ccccc21)C(=O)N[C@@H](CC(N)=O)C(=O)O (Fmoc-EY[Aib]N-OH),Kd,[7],0.0063 µM
same,viability at 50 µM,[1],104%
same,viability at 75 µM,[2],98.2%
same,viability at 100 µM,[3],95.1%
same,viability at 25 µM,[4],104%
N=C(N)NCCC[C@H](NC(=O)[C@H](CCCNC(=N)N)NC(=O)[C@H](CCCCN)NC(=O)[C@H](CCCCN)NC(=O)[C@H](CCCNC(=N)N)NC(=O)CN)C(=O)O (H-GRKKRR-OH),viability at 50 µM,[1],98.5%
same,viability at 75 µM,[2],102%
same,viability at 100 µM,[3],95.4%
same,viability at 25 µM,[4],93.9%
same,IC50,[5],> 100 µM
CC(C)(NC(=O)[C@H](Cc1ccc(O)cc1)NC(=O)[C@H](CCC(=O)O)NC(=O)OCC1c2ccccc2-c2ccccc21)C(=O)N[C@@H](CC(N)=O)C(=O)NCC(=O)N[C@@H](CCCNC(=N)N)C(=O)N[C@@H](CCCCN)C(=O)N[C@@H](CCCCN)C(=O)N[C@@H](CCCNC(=N)N)C(=O)N[C@@H](CCCNC(=N)N)C(=O)O (Fmoc-EY[Aib]NGRKKRR-OH),viability at 50 µM,[1],91.6%
same,viability at 75 µM,[2],90.9%
same,viability at 100 µM,[3],85.3%
same,viability at 25 µM,[4],84.2%
same,IC50,[5],> 100 µM
CC[C@H](C)[C@H](NC(=O)[C@H](C)NC(=O)[C@@H](N)Cc1ccc(O)cc1)C(=O)N[C@@H](C)C(=O)N[C@@H](Cc1c[nH]c2ccccc12)C(=O)N[C@H](C(=O)N[C@@H](CCCCN)C(=O)N[C@@H](C)C(=O)N[C@@H](Cc1ccccc1)C(=O)N[C@H](C(=O)N[C@@H](CCCNC(=N)N)C(=O)N[C@@H](CCCCN)C(=O)N[C@@H](CC(C)C)C(=O)N[C@@H](CCCNC(=N)N)C(=O)N[C@@H](CCCCN)C(=O)N[C@@H](CCC(=O)O)C(=O)N[C@@H](Cc1ccc(O)cc1)C(=O)NC(C)(C)C(=O)N[C@@H](CC(N)=O)C(=O)O)[C@@H](C)CC)C(C)C (H-YAIAWVKAFIRKLRKEY[Aib]N-OH),viability at 50 µM,[1],74.4%
same,viability at 75 µM,[2],64.5%
same,viability at 100 µM,[3],59.9%
same,viability at 25 µM,[4],83.8%
same,IC50,[5],> 100 µM
CC(C)(NC(=O)[C@H](Cc1ccc(O)cc1)NC(=O)[C@H](CCC(=O)O)NC(=O)[C@H](CCCNC(=N)N)NC(=O)[C@H](CCCNC(=N)N)NC(=O)[C@H](CCCCN)NC(=O)[C@H](CCCCN)NC(=O)[C@H](CCCNC(=N)N)NC(=O)CN)C(=O)N[C@@H](CC(N)=O)C(=O)O (H-GRKKRREY[Aib]N-OH),viability at 50 µM,[1],91.6%
same,viability at 75 µM,[2],83.2%
same,viability at 100 µM,[3],82.1%
same,viability at 25 µM,[4],90.9%
same,IC50,[5],> 100 µM
CC[C@H](C)[C@H](NC(=O)[C@H](C)NC(=O)[C@@H](NC(=O)[C@H](Cc1ccc(O)cc1)NC(=O)[C@H](Cc1ccc(O)cc1)NC(=O)[C@H](CCC(=O)O)NC(=O)C(C)(C)NC(=O)[C@@H](N)CC(N)=O)[C@@H](C)O)C(=O)N[C@@H](C)C(=O)N[C@@H](Cc1c[nH]c2ccccc12)C(=O)N[C@H](C(=O)N[C@@H](CCCCN)C(=O)N[C@@H](C)C(=O)N[C@@H](Cc1ccccc1)C(=O)N[C@H](C(=O)N[C@@H](CCCNC(=N)N)C(=O)N[C@@H](CCCCN)C(=O)N[C@@H](CC(C)C)C(=O)N[C@@H](CCCNC(=N)N)C(=O)N[C@@H](CCCCN)C(=O)O)[C@@H](C)CC)C(C)C (H-N[Aib]EYYTAIAWVKAFIRKLRK-OH),viability at 50 µM,[1],78.9%
same,viability at 75 µM,[2],56.9%
same,viability at 100 µM,[3],40.6%
same,viability at 25 µM,[4],85.3%
same,IC50,[5],72.4 µM
